Data: patent US8796268B2, “Heteroaryls and uses thereof” (Millennium Pharmaceuticals, Inc., priority 2010, dated 2014)

How the values were obtained:
Type in all cases: biochemical
Human PI3K gamma = target: T1, Human PI3K gamma (Homo sapiens, UniProt P48736); assay: Human PI3K gamma enzyme assay (HTRF); settings: concentration not given, b1389 states 1.0 μM for PI3K δ and γ; for inhibition at 1 µM: read-out: p110 gamma Percent Inhibition
T1 construct: His (N); host or cells: SF9 insect cells (baculovirus)
T1 sequence (P48736 whole entry): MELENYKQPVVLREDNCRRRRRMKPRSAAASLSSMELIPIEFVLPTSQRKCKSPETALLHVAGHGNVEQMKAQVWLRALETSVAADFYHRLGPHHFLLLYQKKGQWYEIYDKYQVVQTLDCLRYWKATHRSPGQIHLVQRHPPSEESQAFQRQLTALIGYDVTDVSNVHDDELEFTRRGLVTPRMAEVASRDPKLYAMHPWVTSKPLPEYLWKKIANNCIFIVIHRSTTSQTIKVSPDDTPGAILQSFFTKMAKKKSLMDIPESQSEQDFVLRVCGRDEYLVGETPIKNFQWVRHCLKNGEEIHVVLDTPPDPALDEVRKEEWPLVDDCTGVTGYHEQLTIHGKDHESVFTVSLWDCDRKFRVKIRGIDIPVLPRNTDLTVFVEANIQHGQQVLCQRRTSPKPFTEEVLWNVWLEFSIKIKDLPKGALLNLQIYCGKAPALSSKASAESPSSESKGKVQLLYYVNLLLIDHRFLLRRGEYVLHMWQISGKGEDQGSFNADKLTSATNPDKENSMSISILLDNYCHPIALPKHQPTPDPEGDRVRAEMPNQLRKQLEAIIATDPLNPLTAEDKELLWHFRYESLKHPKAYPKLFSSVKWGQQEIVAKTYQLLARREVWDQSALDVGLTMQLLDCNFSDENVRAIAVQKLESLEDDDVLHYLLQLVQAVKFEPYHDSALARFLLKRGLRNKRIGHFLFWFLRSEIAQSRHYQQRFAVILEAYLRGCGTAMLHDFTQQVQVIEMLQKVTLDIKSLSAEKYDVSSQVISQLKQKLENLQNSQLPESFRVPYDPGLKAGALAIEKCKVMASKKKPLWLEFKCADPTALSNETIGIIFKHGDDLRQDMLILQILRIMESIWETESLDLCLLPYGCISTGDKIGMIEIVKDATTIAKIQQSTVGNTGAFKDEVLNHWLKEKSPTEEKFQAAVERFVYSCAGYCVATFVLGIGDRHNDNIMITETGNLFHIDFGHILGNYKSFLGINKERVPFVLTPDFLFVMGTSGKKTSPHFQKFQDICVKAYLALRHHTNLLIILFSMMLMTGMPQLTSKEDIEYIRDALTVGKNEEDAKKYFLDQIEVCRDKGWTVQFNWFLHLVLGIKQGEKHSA
Outline: (§1)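 Compounds were mixed with 25 uM ATP, then with 3.5 uM di-C8 PI(4,5)P2 and His-tagged PI3K isoform (β 5.25 nM, δ 0.75 nM, γ 5 nM) at pH 7.00. After 30 min at room temperature, EDTA stopped the reaction and PIP3 was measured by HTRF over 1 h.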

Human PI3K alpha = target: T2, Human PI3K alpha (Homo sapiens, UniProt P42336); assay: Human PI3K alpha enzyme assay (HTRF); settings: concentration not given, b1387 states 1.1 μM for PI3K α and β; for inhibition at 1.1 µM: read-out: p110 alpha Percent Inhibition
T2 construct: His (N); host or cells: SF9 insect cells (baculovirus)
T2 sequence (P42336 whole entry): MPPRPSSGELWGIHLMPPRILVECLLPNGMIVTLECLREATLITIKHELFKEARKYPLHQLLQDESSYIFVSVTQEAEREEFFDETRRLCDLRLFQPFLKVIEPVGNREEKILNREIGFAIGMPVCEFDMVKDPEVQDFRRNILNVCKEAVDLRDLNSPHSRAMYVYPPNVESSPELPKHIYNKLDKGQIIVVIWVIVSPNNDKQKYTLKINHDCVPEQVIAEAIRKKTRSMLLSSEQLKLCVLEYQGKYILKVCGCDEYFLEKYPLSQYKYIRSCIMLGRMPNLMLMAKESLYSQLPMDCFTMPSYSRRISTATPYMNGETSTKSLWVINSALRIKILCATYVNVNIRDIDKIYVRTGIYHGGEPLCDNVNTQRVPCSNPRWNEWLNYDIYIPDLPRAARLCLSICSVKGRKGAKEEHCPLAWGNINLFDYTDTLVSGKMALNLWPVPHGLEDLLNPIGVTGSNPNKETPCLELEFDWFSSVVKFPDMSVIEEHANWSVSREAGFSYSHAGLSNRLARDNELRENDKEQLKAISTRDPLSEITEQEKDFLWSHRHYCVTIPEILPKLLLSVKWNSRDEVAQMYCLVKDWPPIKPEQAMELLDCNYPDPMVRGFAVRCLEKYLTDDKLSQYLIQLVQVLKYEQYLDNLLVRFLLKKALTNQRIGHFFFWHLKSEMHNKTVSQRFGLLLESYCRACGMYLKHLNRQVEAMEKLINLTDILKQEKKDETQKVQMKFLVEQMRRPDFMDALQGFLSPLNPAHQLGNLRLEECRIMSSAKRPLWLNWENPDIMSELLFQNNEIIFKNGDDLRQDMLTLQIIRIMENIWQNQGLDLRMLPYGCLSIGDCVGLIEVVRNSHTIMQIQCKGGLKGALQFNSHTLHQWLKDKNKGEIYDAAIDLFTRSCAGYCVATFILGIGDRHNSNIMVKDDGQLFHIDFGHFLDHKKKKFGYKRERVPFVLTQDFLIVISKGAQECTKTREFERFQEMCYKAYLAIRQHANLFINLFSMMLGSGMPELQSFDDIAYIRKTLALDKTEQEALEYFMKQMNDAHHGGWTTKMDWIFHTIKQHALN
T2 sequence (P27986 whole entry partner): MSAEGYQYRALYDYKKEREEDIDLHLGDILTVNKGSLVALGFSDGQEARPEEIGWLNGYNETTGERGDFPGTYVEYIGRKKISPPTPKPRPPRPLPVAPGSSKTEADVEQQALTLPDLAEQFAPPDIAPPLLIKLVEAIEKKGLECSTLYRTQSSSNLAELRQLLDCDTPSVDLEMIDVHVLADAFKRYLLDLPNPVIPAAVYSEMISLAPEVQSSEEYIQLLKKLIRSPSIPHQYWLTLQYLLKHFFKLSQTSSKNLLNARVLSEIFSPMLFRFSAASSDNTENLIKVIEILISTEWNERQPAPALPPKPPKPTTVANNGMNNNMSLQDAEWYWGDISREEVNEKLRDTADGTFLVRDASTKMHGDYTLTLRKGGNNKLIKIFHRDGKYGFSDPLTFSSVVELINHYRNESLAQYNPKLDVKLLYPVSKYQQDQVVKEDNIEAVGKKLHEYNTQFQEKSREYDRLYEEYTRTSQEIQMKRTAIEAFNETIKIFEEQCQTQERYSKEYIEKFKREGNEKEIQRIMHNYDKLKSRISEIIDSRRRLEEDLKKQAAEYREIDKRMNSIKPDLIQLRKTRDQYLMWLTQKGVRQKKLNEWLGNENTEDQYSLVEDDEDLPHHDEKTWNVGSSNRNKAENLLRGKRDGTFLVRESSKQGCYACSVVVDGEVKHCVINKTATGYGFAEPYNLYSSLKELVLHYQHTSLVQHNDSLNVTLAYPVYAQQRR

Human PI3K delta = target: T3, Human PI3K delta (Homo sapiens, UniProt O00329); assay: Human PI3K delta enzyme assay (HTRF); settings: concentration not given, b1389 states 1.0 μM for PI3K δ and γ; for inhibition at 1 µM: read-out: p110 delta Percent Inhibition
T3 construct: His (N); host or cells: SF9 insect cells (baculovirus)
T3 sequence (O00329 whole entry): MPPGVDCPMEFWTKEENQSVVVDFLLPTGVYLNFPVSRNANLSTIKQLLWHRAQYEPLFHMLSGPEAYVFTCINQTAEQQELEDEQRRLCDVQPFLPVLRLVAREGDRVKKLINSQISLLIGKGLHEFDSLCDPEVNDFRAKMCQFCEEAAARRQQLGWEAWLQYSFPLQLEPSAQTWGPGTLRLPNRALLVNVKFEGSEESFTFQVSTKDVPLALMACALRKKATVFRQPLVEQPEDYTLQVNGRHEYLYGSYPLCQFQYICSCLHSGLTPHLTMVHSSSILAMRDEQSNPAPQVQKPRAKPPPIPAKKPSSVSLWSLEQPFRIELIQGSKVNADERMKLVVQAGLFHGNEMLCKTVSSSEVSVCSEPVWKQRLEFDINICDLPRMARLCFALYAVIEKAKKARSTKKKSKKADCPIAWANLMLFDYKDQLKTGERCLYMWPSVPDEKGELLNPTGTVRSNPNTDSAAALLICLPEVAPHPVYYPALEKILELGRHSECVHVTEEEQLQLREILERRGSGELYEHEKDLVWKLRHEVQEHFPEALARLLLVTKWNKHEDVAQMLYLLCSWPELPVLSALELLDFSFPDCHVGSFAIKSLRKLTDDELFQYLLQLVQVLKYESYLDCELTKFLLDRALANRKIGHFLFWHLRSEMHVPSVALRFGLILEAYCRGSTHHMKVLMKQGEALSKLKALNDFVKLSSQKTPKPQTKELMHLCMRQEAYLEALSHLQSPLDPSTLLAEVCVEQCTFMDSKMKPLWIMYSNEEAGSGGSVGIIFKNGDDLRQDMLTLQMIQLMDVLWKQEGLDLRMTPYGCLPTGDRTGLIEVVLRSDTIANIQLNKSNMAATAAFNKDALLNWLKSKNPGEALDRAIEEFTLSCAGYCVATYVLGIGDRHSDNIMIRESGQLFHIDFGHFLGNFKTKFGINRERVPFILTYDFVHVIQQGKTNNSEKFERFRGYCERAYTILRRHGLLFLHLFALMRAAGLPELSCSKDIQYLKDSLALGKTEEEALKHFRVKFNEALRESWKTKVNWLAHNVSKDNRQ
T3 sequence (P27986 whole entry partner): as the sequence (P27986 whole entry partner) above
Outline: as §1

Human PI3K beta = target: T4, Human PI3K beta (Homo sapiens, UniProt P42338); assay: Human PI3K beta enzyme assay (HTRF); settings: concentration not given, b1387 states 1.1 μM for PI3K α and β; for inhibition at 1.1 µM: read-out: p110 beta Percent Inhibition
T4 construct: His (N); host or cells: SF9 insect cells (baculovirus)
T4 sequence (P42338 whole entry): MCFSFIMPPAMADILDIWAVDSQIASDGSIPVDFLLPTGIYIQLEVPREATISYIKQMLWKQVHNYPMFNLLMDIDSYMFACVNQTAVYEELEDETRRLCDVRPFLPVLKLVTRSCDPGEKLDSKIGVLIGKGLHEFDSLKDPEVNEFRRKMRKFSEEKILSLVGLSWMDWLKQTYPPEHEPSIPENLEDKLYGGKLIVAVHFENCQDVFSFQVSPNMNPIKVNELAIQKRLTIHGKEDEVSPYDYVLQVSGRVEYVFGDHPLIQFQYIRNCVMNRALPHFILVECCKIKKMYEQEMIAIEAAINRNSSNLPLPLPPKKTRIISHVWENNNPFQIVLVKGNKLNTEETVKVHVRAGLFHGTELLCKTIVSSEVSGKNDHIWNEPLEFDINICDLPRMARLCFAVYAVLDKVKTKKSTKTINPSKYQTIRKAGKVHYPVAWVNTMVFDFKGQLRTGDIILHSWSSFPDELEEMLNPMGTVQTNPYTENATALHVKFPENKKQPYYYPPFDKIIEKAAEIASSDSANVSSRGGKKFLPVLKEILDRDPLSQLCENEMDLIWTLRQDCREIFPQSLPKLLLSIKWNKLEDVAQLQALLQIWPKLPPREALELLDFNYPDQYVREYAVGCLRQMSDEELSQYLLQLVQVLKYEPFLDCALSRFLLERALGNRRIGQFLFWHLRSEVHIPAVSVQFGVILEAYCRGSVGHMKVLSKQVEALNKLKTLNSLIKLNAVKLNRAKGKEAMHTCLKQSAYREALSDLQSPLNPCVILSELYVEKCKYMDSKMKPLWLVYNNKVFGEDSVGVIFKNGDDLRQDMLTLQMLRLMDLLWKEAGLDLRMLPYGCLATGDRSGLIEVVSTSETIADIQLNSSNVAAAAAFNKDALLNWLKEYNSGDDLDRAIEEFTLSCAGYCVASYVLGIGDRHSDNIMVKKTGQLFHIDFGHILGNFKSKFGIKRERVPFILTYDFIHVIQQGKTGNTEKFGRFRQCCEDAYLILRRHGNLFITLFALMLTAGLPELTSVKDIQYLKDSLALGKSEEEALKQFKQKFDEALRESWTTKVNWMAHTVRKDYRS
T4 sequence (P27986 whole entry partner): as the sequence (P27986 whole entry partner) above
Outline: as §1

Compound | inhibition at 1 µM (Human PI3K gamma) | inhibition at 1.1 µM (Human PI3K alpha) | inhibition at 1 µM (Human PI3K delta) | inhibition at 1.1 µM (Human PI3K beta) | p110 gamma Percent Inhibition (Human PI3K gamma) | p110 alpha Percent Inhibition (Human PI3K alpha) | p110 delta Percent Inhibition (Human PI3K delta) | p110 beta Percent Inhibition (Human PI3K beta)
O=C(O)c1sc(N2CCOCC2)nc1Cc1cc2ccccc2s1 [Compound 286] | 50% | 36% | 104% | 92% | – | – | – | –
COc1ccc2cc(Cc3nc(N4CCOCC4)sc3C(=O)O)ccc2c1 [Compound 288] | 19% | 14% | 76% | 85% | – | – | – | –
Cc1nc2cc(Cc3nc(N4CCOCC4)sc3C(=O)O)ccc2s1 [Compound 289] | 10% | 11% | 32% | 32% | – | – | – | –
O=C(O)c1sc(N2CCOCC2)nc1Cc1cc(Cl)c(Cl)cc1F [Compound 290] | 49% | 23% | 104% | 104% | – | – | – | –
N#Cc1c(N2CCOCC2)sc(C(=O)O)c1C(N)c1ccc(Cl)c(Cl)c1 (stereo not drawn) [Compound 291] | 57% | 36% | 105% | 107% | – | – | – | –
O=C(O)c1sc(N2CCOCC2)nc1Cc1ccc2cnccc2c1 [Compound 292] | 6% | 4% | 56% | 82% | – | – | – | –
N#Cc1c(N2CCOCC2)sc(C(=O)O)c1Cn1cnc2ccccc2c1=O [Compound 294, 4-cyano-5-(morpholin-4-yl)-3-[(4-oxoquinazolin-3(4H)-yl)methyl]thiophene-2-carboxylic acid] | 35% | 47% | 101% | 94% | – | – | – | –
O=C(O)c1sc(N2CCOCC2)c(C#Cc2ccccc2)c1Cc1ccc(Cl)c(Cl)c1 [Compound 296, 3-(3,4-dichlorobenzyl)-5-(morpholin-4-yl)-4-(phenylethynyl)thiophene-2-carboxylic acid] | 14% | 37% | 107% | 79% | – | – | – | –
N#Cc1c(N2CCOC(CO)C2)sc(C(=O)O)c1Cc1ccc2ccccc2c1 (stereo not drawn) [Compound 297, 4-cyano-5-[2-(hydroxymethyl)morpholin-4-yl]-3-(2-naphthylmethyl)thiophene-2-carboxylic acid] | 33% | 26% | 77% | 104% | – | – | – | –
O=C(NO)c1sc(N2CCOCC2)nc1Cc1ccc(Cl)c(Cl)c1 [Compound 298, 4-(3,4-dichlorobenzyl)-N-hydroxy-2-(morpholin-4-yl)-1,3-thiazole-5-carboxamide] | 38% | 11% | 103% | 95% | – | – | – | –
O=C(O)c1sc(N2CCOCC2)nc1Cc1ccc2cccc(F)c2c1 [Compound 299] | 42% | 39% | 108% | 109% | – | – | – | –
COc1ccc2cc(Cc3c(C(=O)O)sc(N4CCOCC4)c3C#N)ccc2c1 [Compound 301] | 49% | 55% | 89% | 107% | – | – | – | –
Cn1c(Cc2nc(N3CCOCC3)sc2C(=O)O)cc2ccccc21 [Compound 302] | 15% | 21% | 97% | 100% | – | – | – | –
O=C(O)c1sc(N2CCOCC2)nc1Cc1cc2cc(Br)ccc2s1 [Compound 303] | 69% | 99% | 115% | 110% | – | – | – | –
CC(C)C(c1ccc(Cl)cc1)c1nc(N2CCOCC2)sc1C(=O)O (stereo not drawn) [Compound 304] | 7% | 6% | 32% | 25% | – | – | – | –
COCC(c1ccc2ccccc2c1)c1c(C(=O)O)sc(N2CCOCC2)c1C#N (stereo not drawn) [Compound 306] | 51% | 81% | 108% | 109% | – | – | – | –
N#Cc1c(N2CCOCC2)sc(C(=O)O)c1Cc1ccc2ccncc2c1 [Compound 309, 4-cyano-3-(isoquinolin-7-ylmethyl)-5-(morpholin-4-yl)thiophene-2-carboxylic acid] | 66% | 56% | 108% | 101% | – | – | – | –
O=C(O)c1sc(N2CCOCC2)nc1Cc1ccc2ccc(F)cc2c1 [Compound 310] | 64% | 34% | 105% | 106% | – | – | – | –
N#Cc1c(N2CCOCC2)sc(C(=O)O)c1Cc1ccc2sccc2c1 [Compound 311] | 64% | 55% | 105% | 104% | – | – | – | –
N#Cc1c(N2CCOCC2)sc(C(=O)O)c1Cc1cc2cc(F)ccc2[nH]1 [Compound 312] | 47% | 64% | 92% | 105% | – | – | – | –
N#Cc1c(N2CCOCC2)sc(C(=O)O)c1C(CCO)c1ccc2ccccc2c1 (stereo not drawn) [Compound 313] | – | – | 86% | 117% | 30% | 73% | – | –
O=C(O)c1sc(N2CCOCC2)nc1Cc1cc2ccccc2cc1F [Compound 314] | 42% | 42% | 104% | 109% | – | – | – | –
N#Cc1c(N2CCOCC2)sc(C(=O)O)c1Cc1ccc2cc(F)ccc2c1 [Compound 315] | 75% | 97% | 114% | 110% | – | – | – | –
N#Cc1c(N2CCOCC2)sc(-c2nnn[nH]2)c1Cc1ccc2ccccc2c1 [Compound 316, 2-(morpholin-4-yl)-4-(2-naphthylmethyl)-5-(1H-tetrazol-5-yl)thiophene-3-carbonitrile] | 62% | 78% | 111% | 106% | – | – | – | –
CS(=O)(=O)NC(c1ccc(Cl)cc1)c1c(C(=O)O)sc(N2CCOCC2)c1C#N (stereo not drawn) [Compound 317] | 29% | 20% | 70% | 77% | – | – | – | –
NC(=O)c1ccc2ccc(Cc3nc(N4CCOCC4)sc3C(=O)O)cc2c1 [Compound 318] | 14% | 18% | 76% | 96% | – | – | – | –
O=C(O)c1sc(N2CCOCC2)nc1Cc1ccc2ccccc2c1F [Compound 319] | 50% | 59% | 113% | 105% | – | – | – | –
O=C(O)c1sc(N2CCOCC2)c(F)c1Cc1ccc(Cl)c(Cl)c1 [Compound 320, 3-(3,4-dichlorobenzyl)-4-fluoro-5-morpholinothiophene-2-carboxylic acid] | 35% | 16% | 97% | 94% | – | – | – | –
CC(c1ccc(Cl)c(Cl)c1)c1c(C(=O)O)sc(N2CCOCC2)c1C#N (stereo not drawn) [Compound 321] | 59% | 67% | – | – | – | – | 86% | 73%
N#Cc1c(N2CCOCC2)sc(C(=O)O)c1C(CCF)c1ccc2ccccc2c1 (stereo not drawn) [Compound 322] | – | – | – | 104% | 28% | 64% | 67% | –
